Several values for one entry are separate records, joined by “and”; a condition that tells them apart may be missing. Equal entries are not always repeated.
How the values were obtained:
[1] = test system: HIV-1 (patient-derived PR-RT segment); assay: phenotypic drug resistance test, resistance test vectors with patient-derived PR-RT segment, luciferase, 293 cells; assay type: cell-based
Text: Patient-derived segments corresponding to the HIV protease and reverse transcriptase coding regions (hereinafter “PR-RT) were amplified by the reverse transcription-polymerase chain reaction method (RT-PCR) using viral RNA isolated from viral particles present in the plasma or serum of HIV-infected individuals as follows. Viral RNA was isolated from the plasma or serum using oligo-dT magnetic beads (Dynal Biotech, Oslo, Norway), followed by washing and elution of viral RNA. The RT-PCR protocol was divided into two steps. A retroviral reverse transcriptase (e.g. Moloney MuLV reverse transcriptase (Roche Molecular Systems, Inc., Branchburg, N.J.; Invitrogen, Carlsbad, Calif.), or avian myeloblastosis virus (AMV) reverse transcriptase, (Boehringer Mannheim, Indianapolis, Ind.)) was used to copy viral RNA into cDNA. The cDNA was then amplified using a thermostable DNA polymerase (e.g. Taq (Roche Molecular Systems, Inc., Branchburg, N.J.), Tth (Roche Molecular Systems, Inc., Branchburg, N.J.), PRIMEZYME. (enzyme_isolated from Thermus brockianus, Biometra, Gottingen, Germany)) or a combination of thermostable polymerases as described for the performance of “long PCR” (Barnes, W. M., 1994, Proc. Natl. Acad. Sci, USA 91, 2216-20) (e.g. Expand High Fidelity PCR System (Taq+Pwo), (Boehringer Mannheim. Indianapolis, Ind.); GENEAMP® XL PCR kit (PCR kit using_Tth+Vent), (Roche Molecular Systems, Inc., Branchburg, N.J.); or ADVANTAGE II®, Clontech, Palo Alto, Calif.)
PCR primers were designed to introduce ApaI and PinAl recognition sites into the 5′ or 3′ end of the PCR product, respectively.
Resistance test vectors incorporating the “test” patient-derived segments were constructed as described in U.S. Pat. No. 5,837,464 using an amplified DNA product of 1.5 kB prepared by RT-PCR using viral RNA as a template and oligonucleotides PDS Apa, PDS Age, PDS PCR6, Apa-gen, Apa-c, Apa-f, Age-gen, Age-a, RT-ad, RT-b, RT-c, RT-f, and/or RT-g as primers, followed by digestion with ApaI and Agel or the isoschizomer PinAl. To ensure that the plasmid DNA corresponding to the resultant fitness test vector comprises a representative sample of the HIV viral quasi-species present in the serum of a given patient, many (>250) independent E. coli transformants obtained in the construction of a given fitness test vector were pooled and used for the preparation of plasmid DNA.
A packaging expression vector encoding an amphotrophic MuLV 4070A env gene product enables production in a resistance test vector host cell comprising the vector alone viral particles which can efficiently infect human target cells. Vectors encoding all HIV genes with the exception of env were used to transfect a packaging host cell (once transfected the host cell is referred to as a fitness test vector host cell). The packaging expression vector which encodes the amphotrophic MuLV 4070A env gene product is used with the resistance test vector to enable production in the resistance test vector host cell of infectious pseudotyped resistance test vector viral particles.
Drug resistance tests performed with resistance test vectors were carried out using packaging host and target host cells consisting of the human embryonic kidney cell line 293.
Resistance tests were carried out with resistance test vectors using two host cell types. Resistance test vector viral particles were produced by a first host cell (the resistance test vector host cell) that was prepared by transfecting a packaging host cell with the resistance test vector and the packaging expression vector. The resistance test vector viral particles were then used to infect a second host cell (the target host cell) in which the expression of the indicator gene is measured.
The resistance test vectors containing a functional luciferase gene cassette were constructed as described above and host cells were transfected with the resistance test vector DNA. […]

[2] = test system: HIV-1 NL4-3 site-directed reverse transcriptase mutants; assay: phenotypic drug resistance test, site-directed reverse transcriptase mutants in NL4-3 background (POL segment assay); assay type: cell-based; settings: for resistance versus known NNRTI mutation(s) alone: any of N348I, T369I, E399D combined with G190S, K103N, or K103R and V179D, NL4-3 background
Experimental: Further, a site directed double mutant T3691/K103N was generated using conventional techniques and tested for resistance to an NNRTI using the methods described above.
To assess the effects of mutations at positions 348, 369, and 399, a series of site-directed mutants were constructed in an wild-type (NL4-3) background. The NNRTI susceptibility phenotypes of these mutants were then determined using the POL segment assay according to Example 2.
In particular, site-directed mutants were constructed in an NL4-3 background comprising N348I, T369I, E399D, or the combination of N3481 and T369I.
Next, a series of site-directed mutants were constructed to assess the effects of combinations of N3481, T369I, and E399D with previously recognized NNRTI resistance mutations. In particular, mutants comprising N348I, T369I, and E399D were made in combination with G190S, with K103N, and with the combination of K103R and V179D. The effects of these combinations on DLV, EFV, and NVP susceptibility were tested using the POL segment assay according to the method describe in Example 2. The results from these experiments are presented as FIG. 10.
To assess the specific effects of mutations at positions 348, 369, and 399, a series of site-directed mutants were constructed in an wild-type (NL4-3) background. The AZT susceptibility phenotype of these mutants were then determined with a POL segment assay according to Example 2.
In particular, site-directed mutants were constructed in an NL4-3 background comprising N348I, T3691, E399D, or the combination of N348I and T3691. The FC in AZT susceptibility for each mutant is shown as FIG. 13.

[3] = Sample 47 (K103K/N, V106V/A, Y181Y/C, G190G/A)
[4] = Sample 58 (K103N, Y181Y/C, G190G/A)
[5] = Sample 62 (K103H, P225P/H, T369T/I)
[6] = Sample 90 (K103K/N, Y181C, G190A)

Structure (SMILES) | fold change in IC50, PR-RT ([1]; Sample 31 (K103N)) | fold change in IC50, PR-RT ([1]; Sample 33 (K103S)) | fold change in IC50, PR-RT ([1]; Sample 34) | fold change in IC50, PR-RT ([1]; Sample 35 (K103H)) | fold change in IC50, PR-RT ([1]; Sample 36 (K103K/W)) | fold change in IC50, PR-RT ([1]; Sample 38 (K103N)) | fold change in IC50, PR-RT ([1]; Sample 39 (T369A)) | fold change in IC50, PR-RT ([1]; Sample 42 (G190G/A)) | fold change in IC50, PR-RT ([1]; Sample 45) | fold change in IC50, PR-RT [1, 3] | fold change in IC50, PR-RT ([1]; Sample 50 (K103N)) | fold change in IC50, PR-RT ([1]; Sample 51) | fold change in IC50, PR-RT ([1]; Sample 52) | fold change in IC50, PR-RT [1, 4] | fold change in IC50, PR-RT [1, 5] | fold change in IC50, PR-RT ([1]; Sample 64 (T369T/A)) | fold change in IC50, PR-RT ([1]; Sample 69) | fold change in IC50, PR-RT ([1]; Sample 72) | fold change in IC50, PR-RT ([1]; Sample 80 (K103K/N, Y181Y/C)) | fold change in IC50, PR-RT ([1]; Sample 81 (K103N, P225H)) | other results
O=C1Nc2ccc(Cl)cc2[C@@](C#CC2CC2)(C(F)(F)F)O1 [EFV, efavirenz] | 22.8 fold | 7.1 fold | 0.4 fold | 9.3 fold | 6.7 fold | 42.0 fold | 0.3 fold | 3.1 fold | 0.2 fold | 123.9 fold | 63.2 fold | 0.5 fold | 1.3 fold | 26.4 fold | 20 fold and 20.0 fold and 20.00 fold | 1.1 fold | 0.8 fold | 0.5 fold | 11.0 fold | 98.0 fold | fold change in IC50, PR-RT ([1]; Sample 84): 0.7 fold; fold change in IC50, PR-RT ([1]; Sample 85): 22.0 fold; fold change in IC50, PR-RT ([1]; Sample 87): 0.9 fold; fold change in IC50, PR-RT ([1]; Sample 89 (L1001, K103N)): 700.0 fold; fold change in IC50, PR-RT [1, 6]: 50.5 fold; fold change in IC50, PR-RT ([1]; Sample 92): 1.0 fold; fold change in IC50, PR-RT ([1]; Sample 93): 0.8 fold; resistance versus known NNRTI mutation(s) alone [2]: increased
Cc1ccnc2c1NC(=O)c1cccnc1N2C1CC1 [NVP, nevirapine] | 88.4 fold | 23.3 fold | 0.3 fold | 25.2 fold | 13.0 fold | 114.0 fold | 0.3 fold | 34.0 fold | 0.3 fold | 400.0 fold | 153.9 fold | 0.4 fold | 2.0 fold | 400.0 fold | 64 fold and 64.0 fold and 64.00 fold | 1.0 fold | 1.0 fold | 0.7 fold | 46.0 fold | 92.0 fold | fold change in IC50, PR-RT ([1]; Sample 84): 0.8 fold; fold change in IC50, PR-RT ([1]; Sample 85): 131.7 fold; fold change in IC50, PR-RT ([1]; Sample 87): 0.8 fold; fold change in IC50, PR-RT ([1]; Sample 89 (L1001, K103N)): 37.0 fold; fold change in IC50, PR-RT [1, 6]: 400.0 fold; fold change in IC50, PR-RT ([1]; Sample 92): 1.1 fold; fold change in IC50, PR-RT ([1]; Sample 93): 1.6 fold; resistance versus known NNRTI mutation(s) alone [2]: increased; resistance of mutant ([2]; site-directed double mutant T369I/K103N): enhanced resistance
CC(C)Nc1cccnc1N1CCN(C(=O)c2cc3cc(NS(C)(=O)=O)ccc3[nH]2)CC1 [DLV, delavirdine] | 16.4 fold | 8.7 fold | 0.5 fold | 6.5 fold | 6.7 fold | 128.0 fold | 0.2 fold | 0.4 fold | 0.1 fold | 6.2 fold | 250.0 fold | 0.3 fold | 3.1 fold | 149.6 fold | 16.0 fold and 16.00 fold | 1.6 fold | 1.4 fold | 0.9 fold | 65.0 fold | 12.0 fold | fold change in IC50, PR-RT ([1]; Sample 84): 0.9 fold; fold change in IC50, PR-RT ([1]; Sample 85): 25.2 fold; fold change in IC50, PR-RT ([1]; Sample 87): 0.7 fold; fold change in IC50, PR-RT ([1]; Sample 89 (L1001, K103N)): 250.0 fold; fold change in IC50, PR-RT [1, 6]: 4.1 fold; fold change in IC50, PR-RT ([1]; Sample 92): 1.1 fold; fold change in IC50, PR-RT ([1]; Sample 93): 0.3 fold; FC in susceptibility relative to NL4-3, versus G190S mutant ([2]; G190S and E399D combination mutant): the same FC

From patent US8637252B2, “Methods and compositions for determining altered susceptibility of HIV-1 to anti-HIV drugs” (Monogram Biosciences, Inc., priority 2011, dated 2014)
